Data as given in patent publication US11208446B2, “Agents and methods for treating CBP-dependent cancers” (priority 2016, dated 2021).

Tests used:
MOLM13 cells = experiment: Giemsa staining of cells for morphology; format: cell-based, human; conditions: 20 μM, 6 hours
Description: Giemsa staining of cells for Morphology. MOLM13 cells were resupended to a concentration of 1×10^6 cells in 1 milliliter of PBS. Using the benchtop Cytospin Centrifuge instrument (ThermoFisher Scientific), 200 uL of the cell suspension was applied white clipped Cytofunnels (ThermoFisher Scientific) to glass microscope slides (2×10^5 cells/slide). Dip Quick Stain (J-322, Jorgensen Laboratories, Inc) was used for per manufacturer's protocol for the polychromic stain of cells.

[1] = tested on: MYB-dependent gene expression; experiment: RNA-seq gene expression after peptide treatment; format: cell-based, human
[2] = tested on: MYC and BCL2 mRNA expression; experiment: RT-qPCR of BCL2 and MYC mRNA normalized to GAPDH; format: cell-based; conditions: human AML cell lines
Description: Quantitative RT-PCR. RNA was isolated using Trizol reagent according to the manufacturer's instructions (Life Technologies). Complementary DNA was synthesized using the SuperScript III First-Strand Synthesis system according to the manufacturer's instructions (Invitrogen). Quantitative real-time PCR was performed using the KAPA SYBR FAST PCR polymerase with 20 ng template and 200 nM primers, according to the manufacturer's instructions (Kapa Biosystems, Wilmington, Mass., USA). PCR primers are listed below. Ct values were calculated using ROX normalization using the ViiA 7 software (Applied Biosystems).

MV411 cells = experiment: CellTiter Glo viability of MV411 cells with ectopic BCL2 expression; format: cell-based, human; conditions: MV411 cells with MSCV-Ires-GFP BCL2 vector
[3] = tested on: primary MLL-rearranged AML; experiment: Primary patient derived xenograft, hCD45 staining of bone marrow; format: in vivo, NSG mice; conditions: 25 mg/kg daily intraperitoneal, 21 days
Description: Mouse studies. All mouse experiments were carried out in accordance with institutional animal protocols. Two hundred thousand primary AML MLL-rearranged leukemia cells were suspended in […] of PBS and transplanted via tail vein injection into 8-week-old sublethally irradiation (200 rad) female NOD.Cg-Prkdc(scid)Il2rg(tm1Wjl)/SzJ mice (The Jackson Laboratory, Bar Harbor, Me., USA). Recipient mice were maintained on antibiotic supplementation in chow (0.025% trimethoprim, 0.124% sulfamethoxazole, Sulfatrim). Three days after transplant, mice were randomly assigned to experimental treatment groups. […]

[4] = tested on: H3K27Ac-driven oncogenic enhancers; experiment: ChIP-seq of H3K27Ac enhancers in AML cells; format: cell-based, human
Description: Chromatin immunoprecipitation and sequencing (ChIP-seq). Briefly, cells were fixed in 1% formalin in phosphate-buffered saline (PBS) for 10 minutes at room temperature. Glycine (125 mM final concentration) and Tris-HCl pH 8 (100 mM final concentration) was added to the cells and cells were washed twice in ice-cold PBS and resuspended in sodium dodecyl sulfate (SDS) lysis buffer (1% SDS, 10 mM EDTA, 50 mM Tris-HCl, pH 8.1). Lysates were sonicated using the Covaris […] adaptive focused sonicator to obtain 100-500 bp chromatin fragments (Covaris, Woburn, Calif.). Lysates containing sheared chromatin fragments were resuspended in 0.01% SDS, 1.1% Triton-X100, 1.2 mM EDTA, 16.7 mM Tris-HCl, pH 8.1, 167 mM NaCl. Lysates and antibody-coupled beads were incubated over night at 4° C. Precipitates were washed sequentially with Mixed Micelle Wash Buffer (15 ml 5M NaCl-150 mM Final, 10 ml 1M Tris-Cl pH 8.1, 5 ml 0.5M EDTA, pH 8.0, 40 ml 65% w/v sucrose, 1 ml 10% NaN3, 25 ml 20% Triton X-100, 10 ml 10% SDS, Add dH2O to 500 ml), LiCl washing solution (0.5% deoxycholic acid, 1 mM EDTA, 250 mM LiCl, 0.5% NP-40, 10 mM Tris-Cl pH 8.0, 0.2% NaN3) and then TBS buffer (20 mM Tris-Cl pH 7.4, 150 mM NaCl). Elution performed in elution buffer (1% SDS, 0.1 M NaHCO3). […] Libraries were sequenced on the Illumina HiSeq 2500 instruments, with 30 million 2×50 bp paired reads.

## CC[C@@H](C)[C@@H](NC(=O)[C@@H](CCCCN)NC(=O)[C@@H](CCC(=O)O)NC(=O)[C@@H](CC(C)C)NC(=O)[C@@H](CCC(=O)O)NC(=O)[C@@H](CC(C)C)NC(=O)[C@@H](CC(C)C)NC(=O)[C@@H](CC(C)C)NC(=O)[C@@H](CCSC)NC(=O)[C@@H](CO)NC(=O)[C@H](NC(=O)[C@@H](CCC(=O)O)NC(=O)[C@@H](CC(N)=O)NC(=O)[C@@H](CCC(=O)O)NC(=O)[C@@H](CC(C)C)NC(=O)[C@@H](CCCCN)NC(C)=O)[C@H](C)O)C(=O)N[C@H](CCCNC(=N)N)C(=O)N[C@H](CCCCN)C(=O)NCC(=O)NCC(=O)N[C@H](CCCNC(=N)N)C(=O)N[C@H](CCCNC(=N)N)C(=O)N[C@H](CCCNC(=N)N)C(=O)N[C@H](CCC(N)=O)C(=O)N[C@H](CCCNC(=N)N)C(=O)N[C@H](CCCNC(=N)N)C(=O)N[C@H](CCCCN)C(=O)N[C@H](CCCCN)C(=O)N[C@H](CCCNC(=N)N)C(=O)NCC(=O)N[C@H](Cc1ccc(O)cc1)C(N)=O [MYBMIM]
MOLM13 cells
  cell morphology: induces cell death without morphologic evidence of differentiation
[1]; MV411 cells, MYBMIM vs control
  MYC and BCL2 expression (volcano plot): significantly downregulated
[1]; human AML cells, 6 hours, 20 μM, vs TG3 and control
  MYB-dependent gene expression (RNA-seq): significant down-regulation
[2]
  MYC and BCL2 mRNA expression as a percentage of GAPDH: downregulation
MV411 cells
  rescue of peptide-induced apoptosis by ectopic Bcl2 expression (cell viability): partial rescue
[3]
  leukemia burden in bone marrow (hCD45 staining): decrease in the leukemia burden
[4]
  H3K27Ac-driven oncogenic enhancers: obliteration
